The values below are quoted from earlier work in patent US20040062802A1, “Maximizing effectiveness of substances used to improve health and well being” (priority 1998, published 2004).

Like-named read-outs stand apart in the source and are kept apart here.

The subject of data set [1] is mouse model. To be noted: drug received at the beginning of the sleep phase; cited from earlier work.
Data set [2] relates to male patients with clinical of BPH. The conditions noted are these: cited from earlier work; for I-PSS Endpoint / Qmax Endpoint: 24 weeks; for I-PSS Endpoint / Qmax Endpoint / I-PSS Baseline / Qmax Baseline: mean; for I-PSS Baseline / Qmax Baseline: after 2 week placebo run-in.
For data set [3] the following is noted: mean, N = 24, cited from earlier work; for AUC0-24 h: 1 mg daily 10 days then 2 mg daily 5 days.
For data set [4] the following is noted: cited from earlier work.
The conditions of data set [5]: cited from earlier work. The source holds these as a separate data set.
Data set [6] has as its system bone marrow cells. To be noted: mouse, in vivo; cited from earlier work.
Data set [7] relates to HIV. The conditions noted are these: 200 mg AZT orally every 4 hours for 7 day periods alternating with ddC 0.03 mg/kg orally every 4 hours for 7 day periods; cited from earlier work.
[8] abbreviates: 800 mg group versus 400 mg group.

For the compound `N.N.O=C([O-])C1(C(=O)[O-])CCC1.[Pt+2]` [carboplatin, Carboplatin], in data set [1], the marrow toxicity result is reported as “lowest marrow toxicity” and the mean survival time entry was “longest mean survival time”.
For orientation: Cmax means the highest concentration seen after dosing. In general, Tmax refers to the time at which the peak concentration occurs. On to `COc1cc2nc(N3CCN(C(=O)C4COc5ccccc5O4)CC3)nc(N)c2cc1OC` (stereo not shown) [Doxazosin], for which the “clinical efficacy versus placebo” value in data set [2] (at 6 weeks and endpoint) is recorded as “significantly differed from placebo”. For the same compound, in data set [2] (evening (8 pm) dosing), the “I-PSS Endpoint” value is 11.7, the “Qmax Endpoint” value is 12.30 mL/s, the “I-PSS Mean Change” value is listed as −6.7 and the “I-PSS Responders” value is recorded as 62.6. Besides, in data set [2] (evening (8 pm) dosing), the “Qmax Mean Change” value was 1.94 mL/s and the “Qmax Responders” value was 28.4. Further, in data set [2] (evening (8 pm) group), the “I-PSS Baseline” value is reported as 18.2 and the “Qmax Baseline” value is 10.49 mL/s. In addition, in data set [2] (morning (8 am) dosing), the “I-PSS Endpoint” value is on record as 11.0, the “Qmax Endpoint” value is 11.84 mL/s, the “I-PSS Mean Change” value was −6.9 and the “I-PSS Responders” value is reported as 57.4. In data set [2] (morning (8 am) dosing), the “Qmax Mean Change” value was 1.51 mL/s and the “Qmax Responders” value was 29.7. Moreover, in data set [2] (morning (8 am) group), the “I-PSS Baseline” value was 18.5 and the “Qmax Baseline” value is 10.17 mL/s. Also, in data set [3] (evening dosing (8 pm)), the AUC0-24 h was 0.25366 µg·h/mL, the Cmax was 0.01576 µg/mL, the T1/2 is 18.77 h and the Tmax is on record as 5.60 h. For the same compound, in data set [3] (morning dosing (8 am)), the AUC0-24 h is 0.2279 µg·h/mL, the Cmax is 0.01698 µg/mL, the T1/2 was 19.52 h and the Tmax is reported as 3.46 h.
Regarding `COC(=O)C(c1ccccc1)C1CCCCN1` (stereo not shown) [methylphenidate], the plasma profile entry is “high dosages of the drug would be present in the body throughout the afternoon and early evening” in data set [4] (ADD, conventional 10 mg at 7 am and 10 mg at 12 pm, FIG. I solid line); “lower dosages of the drug are present in the patient during the morning hours” in data set [4] (narcolepsy, conventional 20 mg at 7 am, 10 mg at 12 pm and 10 mg at 5 pm, FIG. II solid line).
`Cc1cn([C@H]2C[C@H](N=[N+]=[N-])[C@@H](CO)O2)c(=O)[nH]c1=O` [AZT]: the “duration of the effect of AZT” value in data set [5] (400 mg group versus 800 mg group) was “significantly longer”. Also, in data set [5] (setting [8]), the “AZT withdrawn or dose reduced” value is “reduced more frequently” and the adverse reaction result is listed as “more frequently observed”. Besides, the “toxicity (peripheral blood parameters, proportion of bone marrow cells arrested at the S-phase gate)” value in data set [6] was “significantly less toxic”. In addition, the “outcome of alternating regimen” value in data set [7] is reported as “promising treatment regimen”.
